Experimental data reported in patent publication US20070287699A1, “ANTIVIRAL AGENTS” (ViroBay, Inc., priority 2006, published 2007).

System: HCV replicon RNA replication in human Huh7 hepatoma cells
Assay: HCV replicon assay (activity levels from either or both of HCV replicon assay 1, Huh7/Clone A RT-qPCR, and assay 2, Huh7 ET luc-ubi-neo/ET)
Type: cell-based, Hepatitis C virus (HCV)
Details: Hepatitis C virus, Huh-7, either or both HCV replicon assays: Huh7/Clone A, 48 hours, 72 hours, Luc activity or RT-PCR, read-out: inhibit HCV replication at IC50 levels or estimated IC50 levels
From the text: The HCV replicon assay is a cell-culture system that mimics in vivo HCV replication and provides a system to study HCV replication in vitro. It was created by transfecting cloned viral RNA derived from a consensus HCV genomic sequence into human Huh7 hepatoma cells that are semi-permissive for viral RNA production (Lohmann V., Korner F., Koch J.-O., Herian U., Theilmann L. and Bartenschlager R. (1999). Replication of subgenomic Hepatitis C virus RNAs in a hepatoma cell line. Science 285, 110-113 and Blight K. J., Kolykhalov A. A. and Rice C. M. (2000). Efficient initiation of HCV RNA Replication in cell culture. Science 290, […]). These transfected cell lines contain a subgenomic HCV RNA genome that includes (1) the HCV 5′NTR fused to 12 amino acids of the capsid coding region, (2) the neomycin phosphotransferase gene (Neo) as a selectable marker, (3) the internal ribosome entry site (IRES) from encephalomyocarditis virus (EMCV) that directs translation of HCV non-structural proteins (variously NS2 or NS3 to NS5B), and (4) the 3′ NTR. Replicon-containing cells autonomously and persistently replicate HCV RNA that can be measured quantitatively by real-time qPCR. Therefore, the replicon system facilitates quantitative assessment of anti-viral activity by monitoring changes in HCV RNA replication in a cell-based assay.
HCV replicon-containing cells (Huh7/Clone A) were routinely maintained in Clone A growth medium (DMEM medium [Invitrogen], supplemented with 10% Fetal Bovine Serum, 1% Non Essential Amino Acids and 1 g/L G418). Test compounds were dissolved in dimethyl sulfoxide (DMSO) to make 200× stock solutions for all doses prior to treatment.
For the HCV replicon assay, Huh7/Clone A cells were trypsinized from culture flasks, seeded in 1 ml of Clone A growth medium without G418 at 4×10^4 cells per well in 24-well plates and incubated at 37° C. in a humidified CO2 (5%) incubator overnight. Following overnight incubation, compound solutions were added into wells in the same volume (5 μl of 200× compound stock per well) to give a final DMSO concentration of 0.5%. Three wells on each plate supplemented with 5 μl of DMSO served as untreated controls. For IC50 determinations, compounds were tested at 7 serial dilutions in triplicates from the starting stock solutions. The plates were incubated at 37° C. for 48 hours. After incubation, cells were harvested, transferred to 96-well plates, and subjected to total RNA extraction using the RNA Isolation Kit (RNeasy 96, Qiagen) according to the protocol described by the manufacture's RNeasy 96 Handbook (Qiagen).
Total RNA eluted in 130 μl of RNase-free dH2O was quantitated by the RiboGreen Assay according to the supplier's protocol (Molecular Probe). Briefly, 5 μl of RNA samples were aliquoted in duplicate to a 96-well black microplate and a 96-well TaqMan Optical plate. RNA samples in the black microplate were mixed with 95 μl of diluted RiboGreen:reagent (1:250 dilution in TE buffer) and sample fluorescence was measured using a fluorescence microplate reader at standard fluorescein wavelengths (excitation ˜480 nm, emission ˜520 nm). Ribosomal RNA (Molecular Probe) was used as standard.
TaqMan quantitative PCR (RT-qPCR) was used to quantitate the amount of HCV replicon RNA in each sample. The RT-qPCR reactions were performed in 25 μl on an ABI PRISM 7900 HT Sequence Detection System (Applied Biosystems). The reaction mixture contained 5 μl of total RNA (10-100 ng), 1× TaqMan Buffer A (Applied Biosystems), 5.5 mM MgCl2, 1.2 mM dNTP mix, 0.625 U of AmpliTaq Gold (Applied Biosystems), 5 U of MMLV reverse transcriptase (Promega), 5 U of rRNasin (Promega), 300 nM each of the forward and reverse primers, and 100 nM TaqMan MGB probe. Primers and probe were designed to hybridize to a portion of the neomycin resistance gene (neo) in the replicon and the sequences are as follows: forward primer 5′-GGCTACCTGCCCATTCGA-3′; reverse primer 5′-CCGGCTTCCATCCGAGTAC-3′; MGB probe 5′-CCACCAAGCGAAACA-3′. […]

| SMILES | IC50 [µM] |
| --- | --- |
| CN1CCN(c2cc3c(cc2F)c(=O)c(-c2noc(Cc4ccc(F)cc4)n2)cn3Cc2c(F)cccc2F)CC1 [Compound 49, 1-(2,6-difluoro-benzyl)-6-fluoro-3-[5-(4-fluoro-benzyl)-[1,2,4]oxadiazol-3-yl]-7-(4-methyl-piperazin-1-yl)-1H-quinolin-4-one] | < 10 |
| O=c1c(-c2noc(Cc3ccc(F)cc3)n2)cn(Cc2ccc(Cl)cc2)c2cc(N3CCN(c4ccccn4)CC3)c(F)cc12 [Compound 50, 1-(4-chlorobenzyl)-6-fluoro-3-(5-(4-fluorobenzyl)-1,2,4-oxadiazol-3-yl)-7-(4-(pyridin-2-yl)piperazin-1-yl)quinolin-4(1H)-one] | > 10 |
| CN(C)c1cc2c(cc1F)c(=O)c(-c1noc(Cc3ccccc3)n1)cn2Cc1ccc(C(F)(F)F)cc1F [Compound 51, 3-(5-benzyl-[1,2,4]oxadiazol-3-yl)-7-dimethylamino-6-fluoro-1-(2-fluoro-4-trifluoromethyl-benzyl)-1H-quinolin-4-one] | > 10 |
| CN1CCN(c2cc3c(cc2F)c(=O)c(-c2noc(CN4CCCCC4)n2)cn3Cc2ccc(Cl)cc2)CC1 [Compound 52, 1-(4-chloro-benzyl)-6-fluoro-7-(4-methyl-piperazin-1-yl)-3-(5-piperidin-1-ylmethyl-[1,2,4]oxadiazol-3-yl)-1H-quinolin-4-one] | > 10 |
| CN1CCN(c2cc3c(cc2F)c(=O)c(-c2noc(C(CC#N)c4ccccc4)n2)cn3Cc2ccc(Cl)cc2)CC1 (stereo not drawn) [Compound 53, 3-{3-[1-(4-chloro-benzyl)-6-fluoro-7-(4-methyl-piperazin-1-yl)-4-oxo-1,4-dihydro-quinolin-3-yl]-[1,2,4]oxadiazol-5-yl}-3-phenyl-propionitrile] | < 10 |
| CN1CCN(c2cc3c(cc2F)c(=O)c(-c2noc(CN4CCCC4)n2)cn3Cc2ccc(Cl)cc2)CC1 [Compound 54, 1-(4-chloro-benzyl)-6-fluoro-7-(4-methyl-piperazin-1-yl)-3-(5-pyrrolidin-1-ylmethyl-[1,2,4]oxadiazol-3-yl)-1H-quinolin-4-one] | > 10 |
| CNc1cc2c(cc1F)c(=O)c(-c1noc(Cc3ccccc3)n1)cn2Cc1ccc(C(F)(F)F)cc1F [Compound 55, 3-(5-Benzyl-[1,2,4]oxadiazol-3-yl)-6-fluoro-1-(2-fluoro-4-trifluoromethyl-benzyl)-7-methylamino-1H-quinolin-4-one] | > 10 |
| O=c1c(-c2noc(Cc3ccccc3)n2)cn(Cc2ccc(C(F)(F)F)cc2F)c2cc(-n3ccnc3)c(F)cc12 [Compound 56, 3-(5-benzyl-[1,2,4]oxadiazol-3-yl)-6-fluoro-1-(2-fluoro-4-trifluoromethyl-benzyl)-7-imidazol-1-yl-1H-quinolin-4-one] | < 2 |
| Cc1cn(-c2cc3c(cc2F)c(=O)c(-c2noc(Cc4ccccc4)n2)cn3Cc2ccc(C(F)(F)F)cc2F)cn1 [Compound 57, 3-(5-benzyl-[1,2,4]oxadiazol-3-yl)-6-fluoro-1-(2-fluoro-4-trifluoromethyl-benzyl)-7-(4-methyl-imidazol-1-yl)-1H-quinolin-4-one] | < 10 |
| CN1CCN(c2cc3c(cc2F)c(=O)c(-c2noc(Cc4ccc(F)cc4)n2)cn3CCN2CCOCC2)CC1 [Compound 58, 6-fluoro-3-[5-(4-fluoro-benzyl)-[1,2,4]oxadiazol-3-yl]-7-(4-methyl-piperazin-1-yl)-1-(2-morpholin-4-yl-ethyl)-1H-quinolin-4-one] | > 10 |
| CN1CCN(c2cc3c(cc2F)c(=O)c(-c2noc(Cc4ccccc4)n2)cn3CCN2CCOCC2)CC1 [Compound 59, 3-(5-benzyl-[1,2,4]oxadiazol-3-yl)-6-fluoro-7-(4-methyl-piperazin-1-yl)-1-(2-morpholin-4-yl-ethyl)-1H-quinolin-4-one] | > 10 |
| CN1CCN(c2cc3c(cc2F)c(=O)c(-c2noc(C(CC(N)=O)c4ccccc4)n2)cn3Cc2ccc(Cl)cc2)CC1 (stereo not drawn) [Compound 60, 3-{3-[1-(4-chloro-benzyl)-6-fluoro-7-(4-methyl-piperazin-1-yl)-4-oxo-1,4-dihydro-quinolin-3-yl]-[1,2,4]oxadiazol-5-yl}-3-phenyl-propionamide] | > 10 |
| CN1CCN(c2cc3c(cc2F)c(=O)c(-c2noc(Cc4ccccn4)n2)cn3Cc2ccc(Cl)cc2)CC1 [Compound 61, 1-(4-chloro-benzyl)-6-fluoro-7-(4-methyl-piperazin-1-yl)-3-(5-pyridin-2-ylmethyl-[1,2,4]oxadiazol-3-yl)-1H-quinolin-4-one] | > 10 |
| CN1CCN(c2cc3c(cc2F)c(=O)c(-c2noc(Cc4cccnc4)n2)cn3Cc2ccc(Cl)cc2)CC1 [Compound 62, 1-(4-chloro-benzyl)-6-fluoro-7-(4-methyl-piperazin-1-yl)-3-(5-pyridin-3-ylmethyl-[1,2,4]oxadiazol-3-yl)-1H-quinolin-4-one] | > 10 |
| CN1CCN(c2cc3c(cc2F)c(=O)c(-c2noc(C(CCCC#N)c4ccccc4)n2)cn3Cc2ccc(Cl)cc2)CC1 (stereo not drawn) [Compound 63, 5-{3-[1-(4-chloro-benzyl)-6-fluoro-7-(4-methyl-piperazin-1-yl)-4-oxo-1,4-dihydro-quinolin-3-yl]-[1,2,4]oxadiazol-5-yl}-5-phenyl-pentanenitrile] | < 2 |
| CN1CCN(c2cc3c(cc2F)c(=O)c(-c2noc(Cc4ccc(F)cc4)n2)cn3Cc2ccc(Cl)nc2)CC1 [Compound 64, 1-(6-chloro-pyridin-3-ylmethyl)-6-fluoro-3-[5-(4-fluoro-benzyl)-[1,2,4]oxadiazol-3-yl]-7-(4-methyl-piperazin-1-yl)-1H-quinolin-4-one] | < 10 |
| CN1CCN(c2cc3c(cc2F)c(=O)c(-c2noc(Cc4ccccc4)n2)cn3Cc2ccc(Cl)nc2)CC1 [Compound 65, 3-(5-benzyl-[1,2,4]oxadiazol-3-yl)-1-(6-chloro-pyridin-3-ylmethyl)-6-fluoro-7-(4-methyl-piperazin-1-yl)-1H-quinolin-4-one] | < 10 |
| COC(=O)CNc1cc2c(cc1F)c(=O)c(-c1noc(Cc3ccccc3)n1)cn2Cc1ccc(C(F)(F)F)cc1F [Compound 66, methyl[3-(5-benzyl-[1,2,4]oxadiazol-3-yl)-6-fluoro-1-(2-fluoro-4-trifluoromethyl-benzyl)-4-oxo-1,4-dihydro-quinolin-7-ylamino]-acetate] | > 10 |
| CN1CCN(c2cc3c(cc2F)c(=O)c(-c2noc(C(CCC(N)=O)c4ccccc4)n2)cn3Cc2ccc(Cl)cc2)CC1 (stereo not drawn) [Compound 67, 4-{3-[1-(4-chloro-benzyl)-6-fluoro-7-(4-methyl-piperazin-1-yl)-4-oxo-1,4-dihydro-quinolin-3-yl]-[1,2,4]oxadiazol-5-yl}-4-phenyl-butyramide] | < 10 |
| COc1ccc2c(=O)c(-c3noc(Cc4ccccc4)n3)cn(Cc3ccc(C(F)(F)F)cc3)c2c1 [Compound 68, 3-(5-benzyl-oxadiazol-3-yl)-7-methoxy-1-(4-trifluoromethyl-benzyl)-1H-quinolin-4-one] | > 10 |
| NC(=O)CNc1cc2c(cc1F)c(=O)c(-c1noc(Cc3ccccc3)n1)cn2Cc1ccc(C(F)(F)F)cc1F [Compound 69, 2-[3-(5-benzyl-[1,2,4]oxadiazol-3-yl)-6-fluoro-1-(2-fluoro-4-trifluoromethyl-benzyl)-4-oxo-1,4-dihydro-quinolin-7-ylamino]-acetamide] | < 10 |
